# Results from publication PMC12692968, “Design, Synthesis, Molecular Docking, and Anticancer Activity of Chalcone Derivatives as VEGFR-2 Inhibitors” (Molecules, 2025).
# Columns and labels:
# [1] = tested on: human cervical squamous cell carcinoma cell line SiHa; test: CCK-8 cytotoxicity assay, SiHa cells; assay type: cell-based; conditions: for IC50: Homo sapiens, SiHa, CCK-8, 48 h incubation, mean ± SD, n = 3
# Description: (§1) The SiHa, K562, B16 and HK-2 cells were obtained from Wuhan Pricella Biotechnology Co., Ltd. (Wuhan, China). […] 2–5 × 10^3 cells were added to each well of a 96-well plate and incubated for 12 h, followed by the addition of the tested compounds. After incubation for 48 h, 10 μL of the CCK-8 solution was added to each well and incubated for another 2 h. The absorbance of each well was measured at 450 nm using an enzyme-linked immunosorbent assay (ELISA) reader. The experiments were replicated three times. The inhibition rate of cancer cells was calculated using the Formula (1). The half-maximal inhibitory concentration (IC50) value was calculated using GraphPad Prism 8.0 software.
# [2] = tested on: human chronic myeloid leukemia cell line K562; test: CCK-8 cytotoxicity assay, K562 cells; assay type: cell-based; conditions: for IC50: CCK-8, 48 h incubation, mean ± SD, n = 3
# Description: as §1
# [3] = tested on: mouse melanoma cell line B16; test: CCK-8 cytotoxicity assay, B16 cells; assay type: cell-based; conditions: for IC50: CCK-8, 48 h incubation, mean ± SD, n = 3
# Description: as §1
# [4] = tested on: human renal epithelial cell line HK-2; test: CCK-8 cytotoxicity assay, HK-2 cells; assay type: cell-based; conditions: Homo sapiens, Epithelial cell; CCK-8, 48 h incubation, mean ± SD, n = 3
# Description: as §1, with “The cytotoxicity of synthesized compounds against HK-2 cells was also detected. […] The SiHa,” for “The SiHa,”
# [5] = target: T1, VEGFR-2 (KDR) protein kinase (Homo sapiens, UniProt P35968); test: VEGFR-2 (KDR) Kinase Assay Kit enzyme inhibition assay; assay type: biochemical; conditions: Kinase-Glo MAX, 30 °C 45 min, mean ± SD, n = 3
# T1 construct: purchased BPS Biosciences, San Diego, CA, USA
# Description: Many studies have shown that abnormal VEGFR-2 signaling could induce proliferation of cervical squamous cell carcinoma cells, myeloid leukemia cancer cells, and melanoma cells. […] A VEGFR-2 (KDR) Kinase Assay Kit (BPS Biosciences, San Diego, CA, USA) was used to conduct a VEGFR-2 inhibition assay following the manufacturer’s protocol. Briefly, kinase buffer and ATP and PTK substrate (Poly-Glu,Tyr 4:1) were diluted with distilled water to prepare a master mix solution. The master mix solution, test sample, and VEGFR-2 (KDR) protein kinase (2 ng/μL) were added to a 96-well plate and incubated at 30 °C for 45 min. After incubation, Kinase-Glo™ MAX (BPS Biosciences) reagent was added to each well, and incubated for 15 min at room temperature. Then it was immediately detected with an ELISA reader. The experiments were replicated three times.
# T1 sequence (P35968 20-1356): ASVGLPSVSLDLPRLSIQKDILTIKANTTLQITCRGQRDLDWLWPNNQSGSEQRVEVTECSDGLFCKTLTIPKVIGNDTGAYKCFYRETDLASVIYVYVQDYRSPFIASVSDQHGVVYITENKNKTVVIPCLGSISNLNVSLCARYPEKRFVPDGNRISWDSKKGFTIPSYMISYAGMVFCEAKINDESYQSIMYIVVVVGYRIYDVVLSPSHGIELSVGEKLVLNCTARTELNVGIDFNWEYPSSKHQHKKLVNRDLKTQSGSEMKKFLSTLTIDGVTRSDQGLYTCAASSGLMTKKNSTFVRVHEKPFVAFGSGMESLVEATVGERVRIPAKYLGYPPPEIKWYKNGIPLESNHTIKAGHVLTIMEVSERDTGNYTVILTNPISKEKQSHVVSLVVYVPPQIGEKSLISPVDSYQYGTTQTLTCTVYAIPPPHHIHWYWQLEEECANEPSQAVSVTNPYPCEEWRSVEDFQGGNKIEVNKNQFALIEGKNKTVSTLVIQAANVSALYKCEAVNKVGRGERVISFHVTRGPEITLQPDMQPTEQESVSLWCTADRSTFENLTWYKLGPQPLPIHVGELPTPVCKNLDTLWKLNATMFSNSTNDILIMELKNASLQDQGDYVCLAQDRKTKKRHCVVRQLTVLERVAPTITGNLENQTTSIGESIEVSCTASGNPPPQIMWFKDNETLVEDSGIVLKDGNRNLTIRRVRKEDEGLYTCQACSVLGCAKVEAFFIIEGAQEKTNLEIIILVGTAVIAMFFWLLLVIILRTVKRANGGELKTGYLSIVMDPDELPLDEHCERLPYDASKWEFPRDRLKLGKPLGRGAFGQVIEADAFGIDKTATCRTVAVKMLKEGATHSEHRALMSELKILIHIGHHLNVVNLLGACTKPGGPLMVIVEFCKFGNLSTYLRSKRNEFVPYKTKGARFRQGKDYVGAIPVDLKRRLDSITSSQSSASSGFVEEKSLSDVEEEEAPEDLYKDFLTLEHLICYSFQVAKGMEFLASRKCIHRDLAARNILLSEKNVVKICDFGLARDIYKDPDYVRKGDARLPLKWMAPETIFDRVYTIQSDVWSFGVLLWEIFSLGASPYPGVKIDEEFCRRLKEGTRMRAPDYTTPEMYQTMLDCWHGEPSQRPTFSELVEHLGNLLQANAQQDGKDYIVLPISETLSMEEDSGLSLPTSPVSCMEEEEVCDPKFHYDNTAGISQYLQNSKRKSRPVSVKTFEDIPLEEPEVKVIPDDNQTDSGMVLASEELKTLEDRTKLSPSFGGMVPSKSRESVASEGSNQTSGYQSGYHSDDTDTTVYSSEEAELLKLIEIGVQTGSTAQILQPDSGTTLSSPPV
Compound,IC50 [1] [µM],"IC50 ([2]; Homo sapiens, K562, 48 h) [µM]","IC50 ([3]; Mus musculus, B16, 48 h) [µM]","fold increase in cytotoxicity compared to unsubstituted compound 2a, SiHa ([1]; ratio of IC50 values vs 2a) [fold]","fold increase in cytotoxicity compared to unsubstituted compound 2a, K562 ([2]; ratio of IC50 values vs 2a) [fold]","fold increase in cytotoxicity compared to unsubstituted compound 2a, B16 ([3]; ratio of IC50 values vs 2a) [fold]",IC50 [4] [µM],IC50 [5] [µM],IC50 [2] [µM],IC50 [3] [µM],IC50 ([1]; 48 h) [µM]
"O=C(Nc1ccc(C(=O)C=Cc2ccccc2)cc1)Nc1ccc(Cl)c(C(F)(F)F)c1 [Compound 2a, 1-(4-chloro-3-(trifluoromethyl)phenyl)-3-(4-cinnamoylphenyl)urea]",4.43 ± 0.16,12.7 ± 0.45,10.7 ± 0.78,–,–,–,–,–,–,–,–
"COc1ccc(/C=C/C(=O)c2ccc(NC(=O)Nc3ccc(Cl)c(C(F)(F)F)c3)cc2)cc1 [Compound 2b, (E)-1-(4-chloro-3-(trifluoromethyl)phenyl)-3-(4-(3-(4-methoxyphenyl)acryloyl)phenyl)urea]",5.55 ± 0.26,5.08 ± 0.31,8.32 ± 0.61,–,–,–,–,–,–,–,–
"O=C(Nc1ccc(C(=O)/C=C/c2ccc(F)cc2)cc1)Nc1ccc(Cl)c(C(F)(F)F)c1 [Compound 2c, (E)-1-(4-chloro-3-(trifluoromethyl)phenyl)-3-(4-(3-(4-fluorophenyl)acryloyl)phenyl)urea]",1.03 ± 0.02,2.05 ± 0.13,5.02 ± 0.18,4.3,6.2,2.1,15.7 ± 1.22,0.68 ± 0.03,–,–,–
"O=C(Nc1ccc(C(=O)/C=C/c2ccc(Cl)cc2)cc1)Nc1ccc(Cl)c(C(F)(F)F)c1 [Compound 2d, (E)-1-(4-chloro-3-(trifluoromethyl)phenyl)-3-(4-(3-(4-chlorophenyl)acryloyl)phenyl)urea]",4.78 ± 0.14,8.41 ± 0.57,12.8 ± 0.84,–,–,–,–,–,–,–,–
"O=C(Nc1ccc(C(=O)/C=C/c2cccc(Cl)c2)cc1)Nc1ccc(Cl)c(C(F)(F)F)c1 [Compound 2e, (E)-1-(4-chloro-3-(trifluoromethyl)phenyl)-3-(4-(3-(3-chlorophenyl)acryloyl)phenyl)urea]",4.71 ± 0.29,2.91 ± 0.17,11.3 ± 0.64,–,–,–,–,–,–,–,–
"COc1cc(/C=C/C(=O)c2ccc(NC(=O)Nc3ccc(Cl)c(C(F)(F)F)c3)cc2)cc(OC)c1OC [Compound 2f, (E)-1-(4-chloro-3-(trifluoromethyl)phenyl)-3-(4-(3-(3,4,5-trimethoxyphenyl)acryloyl)phenyl)urea]",4.89 ± 0.21,1.62 to 2.02,1.62 to 2.02,–,–,–,5.85 ± 0.36,0.39 ± 0.02,1.68 ± 0.09,1.65 ± 0.29,–
"Cc1ccc(/C=C/C(=O)c2ccc(NC(=O)Nc3ccc(Cl)c(C(F)(F)F)c3)cc2)cc1 [Compound 2g, (E)-1-(4-chloro-3-(trifluoromethyl)phenyl)-3-(4-(3-(p-tolyl)acryloyl)phenyl)urea]",6.03 ± 0.38,4.19 ± 0.26,7.15 ± 0.49,–,–,–,–,–,–,–,–
"COc1cc(/C=C/C(=O)c2ccc(NC(=O)Nc3ccc(Cl)c(C(F)(F)F)c3)cc2)cc(OC)c1 [Compound 2h, (E)-1-(4-chloro-3-(trifluoromethyl)phenyl)-3-(4-(3-(3,5-dimethoxyphenyl)acryloyl)phenyl)urea]",2.99 ± 0.27,1.62 to 2.02,1.62 to 2.02,–,–,–,9.87 ± 0.89,–,2.02 ± 0.12,1.62 ± 0.14,–
"CCc1ccc(/C=C/C(=O)c2ccc(NC(=O)Nc3ccc(Cl)c(C(F)(F)F)c3)cc2)cc1 [Compound 2i, (E)-1-(4-chloro-3-(trifluoromethyl)phenyl)-3-(4-(3-(4-ethylphenyl)acryloyl)phenyl)urea]",7.96 ± 0.26,4.45 ± 0.53,8.66 ± 0.58,–,–,–,–,–,–,–,–
"COc1ccc(/C=C/C(=O)c2ccc(NC(=O)Nc3ccc(Cl)c(C(F)(F)F)c3)cc2)c(OC)c1OC [Compound 2j, (E)-1-(4-chloro-3-(trifluoromethyl)phenyl)-3-(4-(3-(2,3,4-trimethoxyphenyl)acryloyl)phenyl)urea]",6.62 ± 0.28,2.4 ± 0.22,9.73 ± 0.98,–,–,–,–,–,–,–,–
"Cc1ccc(/C=C/C(=O)c2ccc(NC(=O)Nc3ccc(Cl)c(C(F)(F)F)c3)cc2)cc1C [Compound 2k, (E)-1-(4-chloro-3-(trifluoromethyl)phenyl)-3-(4-(3-(3,4-dimethylphenyl)acryloyl)phenyl)urea]",8.35 ± 0.09,1.73 ± 0.23,6.42 ± 0.54,–,–,–,–,–,–,–,–
"O=C(Nc1ccc(C(=O)/C=C/c2ccco2)cc1)Nc1ccc(Cl)c(C(F)(F)F)c1 [Compound 2m, (E)-1-(4-chloro-3-(trifluoromethyl)phenyl)-3-(4-(3-(furan-2-yl)acryloyl)phenyl)urea]",6.53 ± 0.24,8.95 ± 0.76,–,–,–,–,–,–,–,–,–
"O=C(Nc1ccc(C(=O)/C=C/c2cccs2)cc1)Nc1ccc(Cl)c(C(F)(F)F)c1 [Compound 2n, (E)-1-(4-chloro-3-(trifluoromethyl)phenyl)-3-(4-(3-(thiophen-2-yl)acryloyl)phenyl)urea]",–,15.2 ± 1.2,–,–,–,–,–,2.2 ± 0.1,–,–,> 20
"COc1ccc(/C=C/C(=O)c2ccc(NC(=O)Nc3ccc(Cl)c(C(F)(F)F)c3)cc2)cc1O [Compound 2o, (E)-1-(4-chloro-3-(trifluoromethyl)phenyl)-3-(4-(3-(3-hydroxy-4-methoxyphenyl)acryloyl)phenyl)urea]",1.22 ± 0.07,1.51 ± 0.16,3.06 ± 0.22,–,–,–,19.1 ± 1.05,0.31 ± 0.02,–,–,–
"COc1cc(/C=C/C(=O)c2ccc(NC(=O)Nc3ccc(Cl)c(C(F)(F)F)c3)cc2)ccc1O [Compound 2p, (E)-1-(4-chloro-3-(trifluoromethyl)phenyl)-3-(4-(3-(4-hydroxy-3-methoxyphenyl)acryloyl)phenyl)urea]",4.25 ± 0.14,3.42 ± 0.18,4.37 ± 0.28,–,–,–,13.9 ± 0.58,–,–,–,–
"O=C(Nc1ccc(C(=O)/C=C/c2ccc(O)c(O)c2)cc1)Nc1ccc(Cl)c(C(F)(F)F)c1 [Compound 2q, (E)-1-(4-chloro-3-(trifluoromethyl)phenyl)-3-(4-(3-(3,4-dihydroxyphenyl)acryloyl)phenyl)urea]",2.53 ± 0.09,1.12 ± 0.1,4.49 ± 0.24,–,–,–,24.3 ± 1.71,0.55 ± 0.04,–,–,–
"COc1cc(/C=C/C(=O)c2ccc(NC(=O)Nc3ccc(Cl)c(C(F)(F)F)c3)cc2)cc(OC)c1O [Compound 2r, (E)-1-(4-chloro-3-(trifluoromethyl)phenyl)-3-(4-(3-(4-hydroxy-3,5-dimethoxyphenyl)acryloyl)phenyl)urea]",2.22 ± 0.1,0.97 ± 0.06,2.93 ± 0.29,–,–,–,11.3 ± 0.66,–,–,–,–
"O=C(Nc1ccc(C(=O)/C=C/c2ccc(O)cc2)cc1)Nc1ccc(Cl)c(C(F)(F)F)c1 [Compound 2s, (E)-1-(4-chloro-3-(trifluoromethyl)phenyl)-3-(4-(3-(4-hydroxyphenyl)acryloyl)phenyl)urea]",8.96 ± 0.03,6.47 ± 0.36,4.29 ± 0.52,–,–,–,–,–,–,–,–
